What was measured:
Rat [1] = assay: concentration in liver after dosing; conditions: 3 h; dosed: Potassium Perfluorobutane Sulfonate; 20 mg/kg; oral; Female; Harlan Sprague Dawley
Rat [2] = assay: concentration in brain after dosing; conditions: 0.5 h; dosed: Potassium Perfluorobutane Sulfonate; 20 mg/kg; oral; Male; Harlan Sprague Dawley
Rat [3] = assay: concentration in liver after dosing; conditions: 3 h; dosed: Potassium Perfluorobutane Sulfonate; 20 mg/kg; oral; Male; Harlan Sprague Dawley
Rat [4] = assay: concentration in liver after dosing; conditions: 1 h; dosed: Potassium Perfluorobutane Sulfonate; 20 mg/kg; oral; Male; Harlan Sprague Dawley
Rat [5] = assay: concentration in kidney after dosing; conditions: 6 h; dosed: Potassium Perfluorobutane Sulfonate; 20 mg/kg; oral; Male; Harlan Sprague Dawley
Rat [6] = assay: concentration in kidney after dosing; conditions: 1 h; dosed: Potassium Perfluorobutane Sulfonate; 20 mg/kg; oral; Female; Harlan Sprague Dawley
Rat [7] = assay: concentration in plasma after dosing; conditions: 1.5 h; dosed: Potassium Perfluorobutane Sulfonate; 4 mg/kg; iv; Male; F344
Rat [8] = assay: concentration in plasma after dosing; conditions: dosed: Potassium Perfluorobutane Sulfonate, 4 mg/kg, iv, Male, F344
Rat [9] = assay: concentration in plasma after dosing; conditions: dosed: Potassium Perfluorobutane Sulfonate, 4 mg/kg, iv, Male, F344; remark: listed apart in the source
Rat [10] = assay: concentration in kidney after dosing; conditions: 6 h; dosed: Potassium Perfluorobutane Sulfonate; 20 mg/kg; oral; Male; Harlan Sprague Dawley; remark: listed apart in the source
Rat [11] = assay: concentration in plasma after dosing; conditions: dosed: Potassium Perfluorobutane Sulfonate, 4 mg/kg, oral, Male, Harlan Sprague Dawley
Rat [12] = assay: concentration in plasma after dosing; conditions: dosed: Potassium Perfluorobutane Sulfonate, 20 mg/kg, oral, Male, Harlan Sprague Dawley
Rat [13] = assay: concentration in plasma after dosing; conditions: 1.5 h; dosed: Potassium Perfluorobutane Sulfonate; 20 mg/kg; oral; Male; Harlan Sprague Dawley
Rat [14] = assay: concentration in brain after dosing; conditions: 12 h; dosed: Perfluorooctanoic acid; 12 mg/kg; oral; Male; Harlan Sprague Dawley
Rat [15] = assay: concentration in liver after dosing; conditions: 6 h; dosed: Perfluorooctanoic acid; 80 mg/kg; oral; Female; Harlan Sprague Dawley
Rat [16] = assay: concentration in brain after dosing; conditions: 6 h; dosed: Perfluorooctanoic acid; 12 mg/kg; oral; Male; Harlan Sprague Dawley
Rat [17] = assay: concentration in brain after dosing; conditions: 192 h; dosed: Perfluorooctanoic acid; 12 mg/kg; oral; Male; Harlan Sprague Dawley
Rat [18] = assay: concentration in liver after dosing; conditions: 1 h; dosed: Fluorotelomer alcohol 8+2; 80 mg/kg; oral; Female; Harlan Sprague Dawley
Rat [19] = assay: concentration in liver after dosing; conditions: 3 h; dosed: Perfluorooctanoic acid; 80 mg/kg; oral; Female; Harlan Sprague Dawley
Rat [20] = assay: concentration in brain after dosing; conditions: 6 h; dosed: Perfluorooctanoic acid; 12 mg/kg; oral; Male; Harlan Sprague Dawley; remark: listed apart in the source
Rat [21] = assay: concentration in kidney after dosing; conditions: 24 h; dosed: Perfluorooctanoic acid; 12 mg/kg; oral; Male; Harlan Sprague Dawley
Rat [22] = assay: concentration in plasma after dosing; conditions: 3 h; dosed: Fluorotelomer alcohol 8+2; 12 mg/kg; oral; Male; Harlan Sprague Dawley
Rat [23] = assay: concentration in kidney after dosing; conditions: 0.5 h; dosed: Fluorotelomer alcohol 8+2; 80 mg/kg; oral; Female; Harlan Sprague Dawley
Mouse [24] = assay: concentration in plasma after dosing; conditions: 2 h; dosed: 2-Hydroxy-4-methoxybenzophenone; 50 mg/kg; iv; Male; B6C3F1
Rat [25] = assay: concentration in plasma after dosing; conditions: dosed: 2-Hydroxy-4-methoxybenzophenone, 8 mg/kg, iv, Male, F344
Mouse [26] = assay: concentration in plasma after dosing; conditions: 3 h; dosed: 2-Hydroxy-4-methoxybenzophenone; 50 mg/kg; iv; Female; B6C3F1
Mouse [27] = assay: concentration in plasma after dosing; conditions: 10 min; dosed: 2-Hydroxy-4-methoxybenzophenone; 50 mg/kg; iv; Female; B6C3F1
Rat [28] = assay: concentration in plasma after dosing; conditions: dosed: 2-Hydroxy-4-methoxybenzophenone, 100 mg/kg, oral, Female, F344
Mouse [29] = assay: concentration in plasma after dosing; conditions: dosed: 2-Hydroxy-4-methoxybenzophenone, 100 mg/kg, oral, Male, B6C3F1
Mouse [30] = assay: concentration in plasma after dosing; conditions: 2 h; dosed: 2-Hydroxy-4-methoxybenzophenone; 50 mg/kg; iv; Male; B6C3F1; remark: listed apart in the source
Mouse [31] = assay: concentration in plasma after dosing; conditions: 2 h; dosed: 2-Hydroxy-4-methoxybenzophenone; 500 mg/kg; oral; Female; B6C3F1
Rat [32] = assay: concentration in plasma after dosing; conditions: dosed: 2-Hydroxy-4-methoxybenzophenone, 250 mg/kg, oral, Female, F344
Mouse [33] = assay: concentration in plasma after dosing; conditions: dosed: 2-Hydroxy-4-methoxybenzophenone, 100 mg/kg, oral, Female, B6C3F1
Rat [34] = assay: concentration in plasma after dosing; conditions: 5 min; dosed: Nitrite; 20 mg/kg; iv; Male; F344
Rat [35] = assay: concentration in plasma after dosing; conditions: dosed: Nitrite, 20 mg/kg, iv, Male, F344
rat [36] = conditions: dosed: benzo[a]pyrene, 1 mg/kg, iv, male, Sprague Dawley

O=S(=O)([O-])C(F)(F)C(F)(F)C(F)(F)C(F)(F)F.[K+] [Potassium Perfluorobutane Sulfonate]
Conditions	concentration in brain [ng/g]	concentration in kidney [ng/g]	concentration in liver [ng/g]	concentration in plasma [ng/mL]
Rat [1]	–	–	8410	–
Rat [2]	518	–	–	–
Rat [3]	–	–	64100	–
Rat [4]	–	–	100000	–
Rat [5]	–	11000	–	–
Rat [6]	–	21100	–	–
Rat [7]	–	–	–	17300
Rat [10]	–	13100	–	–
Rat [13]	–	–	–	70000

Conditions	concentration in plasma [ng/mL]
Rat [8], 0.75 h	21100
Rat [8], 24 h	171
Rat [9], 3 h	12800
Rat [9], 5 min	32200
Rat [11], 3 h	11700
Rat [11], 5 min	398
Rat [12], 0.25 h	24800
Rat [12], 24 h	848

O=C(O)C(F)(F)C(F)(F)C(F)(F)C(F)(F)C(F)(F)C(F)(F)C(F)(F)F [Perfluorooctanoic acid]
Conditions	concentration in brain [ng/g]	concentration in kidney [ng/g]	concentration in liver [ng/g]	concentration in plasma [ng/mL]
Rat [14]	1230	–	–	–
Rat [15]	–	–	160000	–
Rat [16]	1350	–	–	–
Rat [17]	543	–	–	–
Rat [18]	–	–	601	–
Rat [19]	–	–	162000	–
Rat [20]	1290	–	–	–
Rat [21]	–	29700	–	–
Rat [22]	–	–	–	380
Rat [23]	–	284	–	–

COc1ccc(C(=O)c2ccccc2)c(O)c1 [2-Hydroxy-4-methoxybenzophenone]
Conditions	concentration in plasma [ng/mL]
Mouse [24]	267
Mouse [26]	134
Mouse [27]	8410
Mouse [30]	236
Mouse [31]	81.6

concentration in plasma [ng/mL]
Conditions	0.25 h	2 h	2.5 min	3 h	4 h	10 min
Mouse [29]	113	24.1	84.8	18.6	–	27.8
Mouse [33]	81	4.58	15.3	5.05	–	37.3
Rat [25]	1950	84.6	–	–	–	–
Rat [28]	84.6	–	–	–	16.2	–
Rat [32]	56.9	–	–	–	26.2	–

O=N[O-] [Nitrite]
Conditions	concentration in plasma [ng/mL]
Rat [34]	8200

Rat [35]
Conditions	concentration in plasma [ng/mL]
1 h	3100
5 min	12600

c1ccc2c(c1)cc1ccc3cccc4ccc2c1c34 [benzo[a]pyrene]
rat [36]
Conditions	amount in urine after dosing [ng]
2.991 h	1.11
6.006 h	1.15
24 h	1.15
